Measured values as given in patent publication US4570005A, “Process for the preparation of 2-arylpropyl ether or thioether derivatives” (priority 1980, dated 1986).
≈ marks a conversion by molar mass, not a printed value.

Key:
tobacco cutworm [1] = experiment: Test 1: Effect on Tobacco Cutworm (leaf immersion), mortality after 24 hours; assay type: in vivo; conditions: second-instar larvae, 25° C
Summary of the method: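 Second-instar tobacco cutworm larvae were kept at 25 °C on air-dried sweet-potato leaves that had been immersed for 10 s in test dilutions of 100 or 20 ppm from an emulsifiable concentrate. Mortality was scored at 24 h as the mean of three cups.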

tobacco cutworm [2] = experiment: Test 2: Tobacco Cutworm Larva Dipping Test, mortality after 24 hours; assay type: in vivo; conditions: 24 hours
Summary of the method: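 Second- and fifth-instar larvae dipped 5 s in a water dilution of an emulsifiable concentrate at 100 or 20 ppm, blotted, then held on artificial diet at 25° C. Dead and living larvae counted after 24 hours; mortality averaged over three cups.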

[3] = tested on: resistant green rice leafhopper (collected at Nakagawara); experiment: Test 3: Effect on Resistant Green Rice Leafhopper (collected at Nakagawara); assay type: in vivo, Nephotettix cincticeps Uhler (Green rice leafhopper); conditions: Nephotettix cincticeps, 24 h, read-out: Mortality (%), Green Rice Leafhopper Collected at Nakagawara
Summary of the method: (§1)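 Ten adult females per pot, either resistant (Nakagawara) or sensitive (Chigasaki), were caged on air-dried rice seedlings (2–3 leaves) sprayed at 3 ml/pot with 100 or 20 ppm of an emulsifiable concentrate dilution. Dead and living insects were counted after 24 hours; mortality is the mean of three pots.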

[4] = tested on: sensitive green rice leafhopper (collected at Chigasaki); experiment: whole plant or invertebrate; assay type: in vivo; conditions: Nephotettix cincticeps, sensitive female adults, 24 hours, read-out: Mortality (%), Green Rice Leafhopper Collected at Chigasaki
Summary of the method: as §1

diamond back moth = experiment: Test 4: Effect on Diamond Back Moth; assay type: in vivo; conditions: Plutella, third-instar larvae, 24 hours, read-out: Mortality (%)
Summary of the method: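 Compound formulated as an emulsifiable concentrate, diluted in water to 100 or 20 ppm and sprayed at 3 ml per cup onto cabbage leaves holding 10 third-instar larvae. Mortality counted after 24 hours; mean of three cups.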

green peach aphid = experiment: Test 5: Effect on Green Peach Aphid; assay type: in vivo; conditions: Myzus persicae; 100 ppm; mortality class; 24 hours; read-out: Insecticidal Activity
Summary of the method: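 Eggplant seedlings with 3–4 leaves were infested with aphids and sprayed with a 100 ppm aqueous dilution of an emulsifiable concentrate, then kept in a glasshouse. Living insects were counted after 24 h. Mortality is averaged over three pots and graded A (>95%), B (80–95%), C (50–80%) or D (<50%).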

two-spotted spider mite = experiment: Test 6: Effect on Two-Spotted Spider mite Adults; assay type: in vivo; conditions: Tetranychus urticae; 100 ppm; adults; 24 hours; 25° C; read-out: Mortality (%)
Protocol: To a mixture of 20 parts of the compound of the present invention and 20 parts of Sorpol SM-200 (registered tradename for the product supplied by Toho Chemical Industrial Co., Ltd.) was added 60 parts of xylol, and the mixture was suffciently blended. The obtained emulsifiable concentrate was diluted at a predetermined concentration with distilled water, and the obtained dilution was used.
A kidney bean leaf disc perforated with a cork borer (15 mm in diameter) was placed on water-impregnated absorbent cotton (2 cm×2 cm), and 10 adults of two-spotted spider mite were set free. A chemical dilution having a concentration of 100 ppm was applied with an applicator in an amount of 3 ml.
The leaf disc-placed absorbent cotton was placed in a thermostat chamber maintained at 25° C. After 24 hours, the number of killed adults was counted and the mortality was calculated. The test was made on three leaf discs and the average value was calculated.

German cockroach = experiment: Test 7: Effect on German Cockroach; assay type: in vivo; conditions: Blattella germanica, male adults, agonized and killed after 24 hours, read-out: Mortality (%); for mortality at 10 mg/m2: 10 mg/m^2; for mortality at 50 mg/m2: 50 mg/m^2
Summary of the method: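 Petri dish floors were treated with 50 or 10 mg/m2 of compound (diluted emulsifiable concentrate) and air-dried. Ten male adult German cockroaches per dish were held at 25° C. Agonized and dead insects were counted after 24 hours, averaging two dishes.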

Test 8: Fish Toxicity = assay type: in vivo; conditions: carp, water; concentration at which 1/2 of the test fishes were killed within 48 hours; read-out: Fish Toxicity, TLm48
Protocol: A water tank having a width of 60 cm, a length of 30 cm and a height of 40 cm was filled with water, and 10 yearling carps having a body length of about 5 cm were set free in the tank and adapted to the environment in the tank. A test compound was applied so that the concentration in water was 10, 1 or 0.1 ppm. After 48 hours, the numbers of killed and living carps were counted and the influences on the fishes were examined.

[5] = Test 9: Toxicity Test (acute oral toxicity, mice); conditions: mouse, in vivo, po
Protocol: A predetermined amount of a solution or suspension of a test compound in corn oil was orally administered to male mice having a body weight of 19 to 23 g (0.2 ml per 10 g of the body weight). After 7 days, the number of killed mice was counted and the influences on the mice were examined.

[6] = fifth-instar larvae, read-out: Motality (%), Fifth-Instar Larvae
[7] = second-instar larvae, read-out: Motality (%), Second-Instar Larvae

SMILES | mortality at 20 ppm (tobacco cutworm [1]) | mortality at 100 ppm (tobacco cutworm [1]) | mortality at 20 ppm (tobacco cutworm [2]; [6]) | mortality at 20 ppm (tobacco cutworm [2]; [7]) | mortality at 100 ppm (tobacco cutworm [2]; [6]) | mortality at 100 ppm (tobacco cutworm [2]; [7]) | mortality at 20 ppm [3] | mortality at 100 ppm [3] | mortality at 20 ppm [4] | mortality at 100 ppm [4] | mortality at 20 ppm (diamond back moth) | mortality at 100 ppm (diamond back moth) | mortality at 100 ppm (green peach aphid) | mortality at 100 ppm (two-spotted spider mite) | mortality at 10 mg/m2 (German cockroach) | mortality at 50 mg/m2 (German cockroach) | LC50 at 48 h (Test 8: Fish Toxicity) | LD50 at 168 h [5]
CCC(C)(COCc1cccc(Oc2ccccc2)c1)c1ccc(Cl)cc1 (stereo not shown) [Compound 50, 3-Phenoxybenzyl 2-(4-chlorophenyl)-2-ethylpropyl ether] | 100% | 100% | 90% | 100% | 100% | 100% | 90% | 100% | 80% | 100% | 100% | 100% | > 95% | 100% | 100% | 100% | > 10 µg/mL | > 500 mg/kg
CC(C)(C)c1ccc(C(C)(C)COCc2cccc(Oc3ccccc3)c2)cc1 [Compound 105, 3-Phenoxybenzyl 2-(4-tert-butylphenyl)-2-methylpropyl ether] |  |  |  |  |  |  |  |  |  |  |  |  | 80 to 95% | 100% |  |  | > 1 µg/mL | > 500 mg/kg
CC(C)(CSCc1cccc(Oc2ccccc2)c1)c1ccc(Cl)cc1 [Compound 20, 3-Phenoxybenzyl 2-(4-chlorophenyl)-2-methylpropyl thioether] | 100% | 100% | 80% | 90% | 100% | 100% | 80% | 100% | 50% | 100% | 100% | 100% | > 95% | 100% |  |  | > 10 µg/mL | > 500 mg/kg
COc1ccc(C(C)(C)COCc2cccc(Oc3ccccc3)c2)cc1 [Compound 1, 3-Phenoxybenzyl 2-(4-methoxyphenyl)-2-methyl propyl ether] |  |  |  |  |  |  | 100% | 100% | 100% | 100% |  |  | 80 to 95% | 100% | 100% | 100% | > 10 µg/mL | > 500 mg/kg
CC(C)(COCc1cccc(Oc2ccc(F)cc2)c1)c1ccc(OC(F)F)cc1 [Compound 11, 3-(4-Fluorophenoxy)benzyl 2-(4-difluoromethoxyphenyl)-2-methylpropyl ether] | 100% | 100% | 70% | 90% | 100% | 100% | 100% | 100% | 100% | 100% | 90% | 100% | > 95% | 100% | 100% | 100% | 0.01 to 0.05 µg/mL (≈ 0.024 to 0.12 µM) | > 500 mg/kg
CC(C)(COCc1cccc(Oc2ccccc2)c1)c1ccc(Cl)cc1 [Compound 49, 3-Phenoxybenzyl 2-(4-chlorophenyl)-2-methylpropyl ether] | 100% | 100% | 100% | 100% | 100% | 100% | 100% | 100% | 100% | 100% | 100% | 100% | > 95% | 100% | 100% | 100% | > 10 µg/mL | > 500 mg/kg
CC(C)(COCc1cccc(Oc2ccccc2)c1)c1ccccc1 [Compound 5, 3-Phenoxybenzyl 2-phenyl-2-methylpropyl ether] |  |  |  |  |  |  | 100% | 100% | 100% | 100% |  |  | > 95% | 100% | 80% | 100% |  | > 500 mg/kg
CCCCOc1ccc(C(C)(C)COCc2cccc(Oc3ccccc3)c2)cc1 [Compound 69, 3-Phenoxybenzyl 2-[4-(n-butoxy)phenyl]-2-methylpropyl ether] |  |  |  |  |  |  |  |  |  |  |  |  | > 95% | 60% |  |  | > 1 µg/mL | > 500 mg/kg
COc1ccc(Oc2cccc(COCC(C)(C)c3ccc(Cl)c(Cl)c3)c2)cc1 [Compound 41, 3-(4-methoxyphenoxy)benzyl 2-(3,4-dichlorophenyl)-2-methylpropyl ether] |  |  |  |  |  |  | 100% | 100% | 100% | 100% |  |  | > 95% | 100% | 100% | 100% | > 10 µg/mL | > 500 mg/kg
CC(C)C(COCc1cccc(Oc2ccccc2)c1)c1ccc(Cl)cc1 (stereo not shown) [Comparative Compound (b), reference compound] |  |  |  |  | 0% | 0% |  |  |  |  | 10% | 30% | < 50% | 20% |  |  |  | 
CC(C)Oc1ccc(C(C)(C)COCc2cccc(Oc3ccccc3)c2)cc1 [Compound 59, 3-Phenoxybenzyl 2-(4-isopropoxyphenyl)-2-methylpropyl ether] |  |  | 100% | 100% | 100% | 100% | 100% | 100% | 100% | 100% | 85% | 100% | > 95% | 100% | 100% | 100% |  | > 500 mg/kg
CC(C)(COCc1cccc(Oc2ccccc2)c1)c1ccc(OC(F)F)cc1 [Compound 18, 3-phenoxybenzyl 2-(4-difluoromethoxyphenyl)-2-methylpropyl ether] | 100% | 100% | 100% | 100% | 100% | 100% | 100% | 100% | 100% | 100% | 100% | 100% | > 95% | 100% | 100% | 100% |  | > 500 mg/kg
